This is an account of results in PubChem BioAssay AID256 (DTP/NCI, 2004).

In this experiment the test system is CD2F1 mice, L1210 leukemia ip, survival T/C. Briefly: NCI In Vivo Anticancer Drug Screen. Data for tumor model L1210 Leukemia (intraperitoneal) in CD2F1 (CDF1) mice. The settings on record: endpoint: mean survival time, higher = longer survival. In outline: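 Implant tumor; dose compound or vehicle; measure endpoint in both groups; report treated divided by control.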

Where [1] appears, read: dose: 12.5 mg/kg/injection, schedule: Q01DX009 (ip), vehicle: water.
[2] abbreviates: dose: 25.0 mg/kg/injection, schedule: Q01DX009 (ip), vehicle: water.
[3] abbreviates: dose: 50.0 mg/kg/injection, schedule: Q01DX009 (ip), vehicle: water.
Setting [4] is: dose: 100.0 mg/kg/injection, schedule: Q01DX009 (ip), vehicle: water.
The mark [5] stands for this setting: dose: 100.0 mg/kg/injection, schedule: Q01DX001 (ip), vehicle: saline with Tween-80.
Where [6] appears, read: dose: 100.0 mg/kg/injection, schedule: Q01DX009 (ip), vehicle: saline with Tween-80.
Where [7] appears, read: dose: 200.0 mg/kg/injection, schedule: Q01DX001 (ip), vehicle: saline with Tween-80.
[8] abbreviates: dose: 200.0 mg/kg/injection, schedule: Q01DX009 (ip), vehicle: saline with Tween-80.
The mark [9] stands for this setting: dose: 400.0 mg/kg/injection, schedule: Q01DX001 (ip), vehicle: saline with Tween-80.
The mark [10] stands for this setting: dose: 400.0 mg/kg/injection, schedule: Q01DX009 (ip), vehicle: saline with Tween-80.
Where [11] appears, read: dose: 100.0 mg/kg/injection, schedule: Q04DX002 (ip), vehicle: saline with Tween-80.
Setting [12] is: dose: 200.0 mg/kg/injection, schedule: Q04DX002 (ip), vehicle: saline with Tween-80.
Where [13] appears, read: dose: 100.0 mg/kg/injection, schedule: Q04DX003 (ip), vehicle: saline with Tween-80.
The mark [14] stands for this setting: dose: 200.0 mg/kg/injection, schedule: Q04DX003 (ip), vehicle: saline with Tween-80.
Where [15] appears, read: dose: 400.0 mg/kg/injection, schedule: Q04DX003 (ip), vehicle: saline with Tween-80.
The mark [16] stands for this setting: dose: 100.0 mg/kg/injection, schedule: Q01DX001 (ip), vehicle: saline.
Setting [17] is: dose: 200.0 mg/kg/injection, schedule: Q01DX001 (ip), vehicle: saline.
Setting [18] is: dose: 400.0 mg/kg/injection, schedule: Q01DX001 (ip), vehicle: saline.

Toxic doses and inconclusive results are not listed.

Turning to `CC(C)NC(=O)CCCCN(C(=O)OCc1ccccc1)N(C)C(=O)OCc1ccccc1`, the T/C reads like this: (dose: 50.0 mg/kg/injection, schedule: Q04DX003 (ip), vehicle: Klucel (hydroxypropylcellulose) (HPC)) 100 % of control; (dose: 100.0 mg/kg/injection, schedule: Q04DX003 (ip), vehicle: Klucel (hydroxypropylcellulose) (HPC)) 91 % of control; (dose: 200.0 mg/kg/injection, schedule: Q04DX003 (ip), vehicle: Klucel (hydroxypropylcellulose) (HPC)) 106 % of control; (dose: 400.0 mg/kg/injection, schedule: Q04DX003 (ip), vehicle: Klucel (hydroxypropylcellulose) (HPC)) 95 % of control.

`O=C/C=C/Nc1ccccc1`: the T/C is, setting by setting: (dose: 100.0 mg/kg/injection, schedule: Q01DX009 (ip), vehicle: saline) 94 % of control; (dose: 200.0 mg/kg/injection, schedule: Q01DX009 (ip), vehicle: saline) 102 % of control; (dose: 400.0 mg/kg/injection, schedule: Q01DX009 (ip), vehicle: saline) 96 % of control.

As for `N#CC1CCCC[N-]1.[NH-]CC[N-]CC[NH-].[Pt+4]` (centres undefined), the T/C is 93 % of control under setting [1], 95 % of control under setting [2], 97 % of control under setting [3] and 88 % of control under setting [4].

With `CCOC(=O)c1cnc(SC)nc1NCc1ccc(Cl)cc1`, the T/C under setting [5] is 98 % of control; the T/C under setting [6] was 100 % of control; the T/C under setting [7] was 102 % of control; the T/C under setting [8] was 103 % of control; the T/C under setting [9] was 94 % of control; the T/C under setting [10] is 97 % of control.

For `CC(C)(C)c1ccc(OC(=S)c2ccccc2)cc1`, the T/C is 104 % of control under setting [11]; 89 % of control under setting [12]; 89 % of control (dose: 400.0 mg/kg/injection, schedule: Q04DX002 (ip), vehicle: saline with Tween-80).

As to `[Co+3].[NH-]CC[NH-].[NH-]CC[NH-].[NH-]CC[NH-].[O-][I+2]([O-])O`, the T/C runs as follows: under setting [11], 100 % of control; under setting [12], 96 % of control.

Consider `Cc1ccc(NC(=O)c2ccccc2Cl)cc1C`, for which the T/C by setting is: under setting [13], 97 % of control; under setting [14], 103 % of control; under setting [15], 93 % of control.

Regarding `CC(=O)OC1C(CO)OC2C1Oc1nc(=N)c(F)cn12` (centres undefined), the T/C is, setting by setting: (dose: 3.13 mg/kg/injection, schedule: Q01DX009 (ip), vehicle: saline) 101 % of control; (dose: 6.25 mg/kg/injection, schedule: Q01DX009 (ip), vehicle: saline) 106 % of control; (dose: 12.5 mg/kg/injection, schedule: Q01DX009 (ip), vehicle: saline) 110 % of control; (dose: 25.0 mg/kg/injection, schedule: Q01DX009 (ip), vehicle: saline) 116 % of control.

With `[N-]=[N+]=CC(=O)NCC(=O)NNC(=O)c1ccccc1`, the T/C runs as follows: under setting [6], 105 % of control; under setting [13], 96 % of control; under setting [8], 107 % of control; under setting [14], 104 % of control; under setting [10], 108 % of control; under setting [15], 105 % of control.

As to `CC1(C2CC(=O)N(OCc3ccccc3)C2=O)OCCO1` (centres undefined), the T/C is 89 % of control (dose: 100.0 mg/kg/injection, schedule: Q04DX003 (ip), vehicle: other); 87 % of control (dose: 200.0 mg/kg/injection, schedule: Q04DX003 (ip), vehicle: other); 88 % of control (dose: 400.0 mg/kg/injection, schedule: Q04DX003 (ip), vehicle: other).

For the molecule `COc1ccccc1OC`, the T/C was 95 % of control under setting [6], 92 % of control under setting [8] and 92 % of control under setting [10].

As for `COc1ccc2ccccc2c1C(=O)CCCc1ccccc1`, the T/C was 97 % of control under setting [1]; 96 % of control under setting [2]; 97 % of control under setting [3]; 96 % of control under setting [4]; 96 % of control (dose: 200.0 mg/kg/injection, schedule: Q01DX009 (ip), vehicle: water).

As to `O=C(O)CBr.O=C(O)CBr.[NH-]C1CCCCCCC1[NH-].[Pt+2]` (centres undefined), the T/C is 122 % of control (dose: 4.68 mg/kg/injection, schedule: Q01DX001 (ip), vehicle: distilled water + Tween-80); 119 % of control (dose: 9.36 mg/kg/injection, schedule: Q01DX001 (ip), vehicle: distilled water + Tween-80); 161 % of control (dose: 18.75 mg/kg/injection, schedule: Q01DX001 (ip), vehicle: distilled water + Tween-80).

`Cc1[nH]nc(C(F)(F)F)c1N=NN1CCOCC1`: the T/C runs as follows: (dose: 75.0 mg/kg/injection, schedule: Q01DX001 (ip), vehicle: other) 100 % of control; (dose: 150.0 mg/kg/injection, schedule: Q01DX001 (ip), vehicle: other) 109 % of control; (dose: 300.0 mg/kg/injection, schedule: Q01DX001 (ip), vehicle: other) 101 % of control.

Regarding `N#C/C(C(=S)S)=C(/O)c1ccccc1`, the T/C by setting is: (dose: 25.0 mg/kg/injection, schedule: Q01DX009 (ip), vehicle: saline with Tween-80) 102 % of control; (dose: 50.0 mg/kg/injection, schedule: Q01DX009 (ip), vehicle: saline with Tween-80) 101 % of control; under setting [6], 102 % of control; under setting [13], 94 % of control.

With `CCN1C(=O)CC(O)C1=O` (centres undefined), the T/C by setting is: under setting [16], 105 % of control; under setting [17], 103 % of control; under setting [18], 103 % of control.

In the case of `Fc1c(F)c(F)c(OP2(Oc3c(F)c(F)c(F)c(F)c3F)=NP(Oc3c(F)c(F)c(F)c(F)c3F)(Oc3c(F)c(F)c(F)c(F)c3F)=NP(Oc3c(F)c(F)c(F)c(F)c3F)(Oc3c(F)c(F)c(F)c(F)c3F)=N2)c(F)c1F`, the T/C under setting [6] was 103 % of control; the T/C under setting [13] is 98 % of control; the T/C under setting [8] is 101 % of control; the T/C under setting [14] is 95 % of control; the T/C under setting [10] is 95 % of control; the T/C under setting [15] is 98 % of control.

Regarding `CCCCCCCCCCOc1ccc(OCCCCCCCCC)cc1`, the T/C reads like this: under setting [5], 86 % of control; under setting [7], 90 % of control.

`CCN(CC)c1ccc(NC(=O)c2ccc(C(=O)Nc3ccc(N(CC)CC)cc3)cc2)cc1`: the T/C under setting [16] was 89 % of control, the T/C under setting [17] is 92 % of control and the T/C under setting [18] is 92 % of control.

Turning to `NC(=O)C[n+]1cccc(C(=O)Nc2ccccc2)c1`, the T/C (dose: 100.0 mg/kg/injection, schedule: Q01DX009 (ip), vehicle: saline sonified) is 95 % of control and the T/C (dose: 200.0 mg/kg/injection, schedule: Q01DX009 (ip), vehicle: saline sonified) is 89 % of control.

On to `C/C(=N/O)c1ccc(C)cc1`, for which the T/C under setting [6] is 94 % of control; the T/C under setting [13] was 105 % of control; the T/C under setting [8] was 91 % of control; the T/C under setting [14] is 107 % of control; the T/C under setting [10] is 93 % of control; the T/C under setting [15] is 102 % of control.

As for `S=C(S)NNc1ccccc1`, the T/C under setting [14] was 91 % of control.

For the molecule `CCN(CC)C(=O)[S-].CCN(CC)C(=O)[S-].[Ni+2]`, the T/C under setting [5] is 94 % of control, the T/C under setting [7] was 98 % of control and the T/C under setting [9] was 102 % of control.

For the molecule `NC(CSC(c1ccccc1)(c1ccccc1)c1ccc(CBr)cc1)C(=O)O` (centres undefined), the T/C (dose: 12.5 mg/kg/injection, schedule: Q01DX009 (ip), vehicle: other) is 107 % of control; the T/C (dose: 25.0 mg/kg/injection, schedule: Q01DX009 (ip), vehicle: other) is 107 % of control; the T/C (dose: 50.0 mg/kg/injection, schedule: Q01DX009 (ip), vehicle: other) is 109 % of control; the T/C (dose: 100.0 mg/kg/injection, schedule: Q01DX009 (ip), vehicle: other) was 115 % of control; the T/C (dose: 400.0 mg/kg/injection, schedule: Q01DX009 (ip), vehicle: other) was 164 % of control.

Regarding `O=[N+]([O-])c1cc(Cl)ccc1O`, the T/C runs as follows: under setting [6], 93 % of control; under setting [8], 90 % of control.
